# Assay results reported in PMC11018795, “The regulatory relationship between NAMPT and PD-L1 in cancer and identification of a dual-targeting inhibitor” (EMBO Molecular Medicine, 2024).
# Where “and” joins values, the source holds several entries; their conditions need not be identical. Equal entries are not always repeated. Where two headings read alike, the source gives them in different places.
# What was measured:
# [1] = system: IFN-γ and TNF-α secretion, LLC cells co-cultured with T cells; assay: ELISA of IFN-γ and TNF-α, LLC cells under co-culture condition; type: cell-based, mouse; design: unit not given here; details: in vitro
# [2] = system: glycolytic genes in LLC cells; assay: RT-PCR of glycolytic genes in LLC cells with or without T cells; type: cell-based, mouse; design: key to HK2 mRNA level / Glut1 mRNA level / Aldoa mRNA level / Eno1 mRNA level: relative mRNA level normalized to GAPDH (endogenous control)
# Method: (§1) Total RNA was isolated using TRIzol reagent (Invitrogen, 15596026) according to the manufacturer's protocol. First-strand cDNA synthesis was performed using a RevertAid First Strand cDNA Synthesis Kit (Thermo Fisher, […]). Quantitative real-time PCR analysis was performed by mixing 10 μl SYBR, 0.4 μM forward primer, 0.4 μM reverse primer, 1 μl cDNA, and 8.2 μl distilled water per sample with Top Green qPCR SuperMix (Transgene, AQ601-04) by the manufacturer's protocols. GAPDH was used as an endogenous control. All qRT-PCRs were set up in triplicate using three biological replicates for each sample. Primer information is shown in Appendix Table S1.
# [3] = system: pyruvate content of LLC cells; assay: Pyruvate (PA) content in LLC cells with or without T cells; type: cell-based, mouse; design: unit not given beside the values
# Source text: Supplement 44321_2024_51_MOESM3_ESM.zip/Fig-2-G.xlsx, sheet "Sheet1" | column: "-T cells; "+T cells
# [4] = system: NAD+ content of LLC cells; assay: NAD+ content in LLC cells with or without T cells; type: cell-based, mouse; design: unit not given here
# Method: (§2) NAD^+ assays were performed to quantify the total NAD^+ content. NAD^+ assay was performed using the NAD/NADH Assay Kit (ab65348; Abcam) according to the manufacturer’s recommended protocol.
# [5] = system: glycolytic genes in A549 cells; assay: RT-PCR of glycolytic genes, A549 cells co-cultured with PBMC; type: cell-based, human; design: key to Aldoa mRNA level / Eno1 mRNA level / HK2 mRNA level / Glut1 mRNA level: relative mRNA level normalized to GAPDH (endogenous control)
# Method: as §1
# [6] = system: glycolytic genes in A549 KO HIF-1α cells; assay: RT-PCR of glycolytic genes, A549 KO HIF-1α cells co-cultured with PBMC; type: cell-based, human; details: A549 KO HIF-1α co-cultured with PBMC
# Method: as §1
# [7] = system: NAD+ content of A549 cells; assay: NAD+ content, A549 cells with or without PBMC; type: cell-based, human; design: unit not given here
# Method: as §2
# [8] = system: NAD+ content of A549 KO HIF-1α cells; assay: NAD+ content, A549 KO HIF-1α cells with or without PBMC; type: cell-based, human; design: unit not given here
# Method: as §2
# [9] = system: pyruvate content of A549 cells; assay: Pyruvate (PA) content, A549 cells with or without PBMC; type: cell-based, human; design: unit not given beside the values
# Source text: Supplement 44321_2024_51_MOESM3_ESM.zip/Fig-2-K-PA.xlsx, sheet "Sheet1" | column: A549
# [10] = system: pyruvate content of A549 KO HIF-1α cells; assay: Pyruvate (PA) content, A549 KO HIF-1α cells with or without PBMC; type: cell-based, human; design: unit not given beside the values
# Source text: Supplement 44321_2024_51_MOESM3_ESM.zip/Fig-2-K-PA.xlsx, sheet "Sheet1" | column: A549 KO HIF-1α
# [11] = system: LLC OE NAMPT/PD-L1 tumors; assay: LLC OE NAMPT/PD-L1 tumor-bearing C57BL/6 mice; type: in vivo, mouse; details: 20 mg/kg i.p.; 14 days; Fig 7B
# [12] = system: IFN-γ and TNF-α in LLC OE NAMPT/PD-L1 tumor tissues; assay: ELISA of IFN-γ and TNF-α in tumor tissues of LLC OE NAMPT/PD-L1 mouse model; design: unit not given here; details: in vivo, tumor tissue, CQ-85 20 mg/kg
# [13] = system: NAMPT expression in LLC OE NAMPT/PD-L1 tumors; assay: NAMPT protein expression in LLC constructed xenograft model; type: in vivo, mouse; details: CQ-85 20 mg/kg vs control group
# [14] = system: NAD+ content of LLC OE NAMPT/PD-L1 tumor tissue; assay: NAD+ in tumor tissue, LLC OE NAMPT/PD-L1 mouse model; type: in vivo; details: 20 mg/kg; tumor tissue
# A20 tumors = assay: A20 tumor-bearing Balb/c mice; type: in vivo, mouse; details: A20 model; FK866 20 mg/kg, LZFPN-90 20 and 40 mg/kg i.p.
# [15] = system: PD-L1 expression in A2780 and LLC cells; assay: PD-L1 expression (western blot, flow cytometry, qRT-PCR) in A2780 and LLC cells; type: cell-based, human, mouse; details: 72 h
# Method: For surface marker detection, tumor single-cell suspensions and spleen lymphocytes were incubated at 4 °C for 30 min in PBS with 0.1% Fixable Viability Dye (eBioscience 65-0863-14). Cells were washed and incubated in staining buffer (PBS with 1% FBS) with surface marker antibodies, the dilution ratio of all flow antibodies was 1:200 (BioLegend, CD3-APC 100235, CD3-PE 100205, CD4-FITC 100405, CD8-APC 100711, CD8-PE 100707, CD45-APC 103112, PD-L1-PE 124307, adsorbed secondary antibody-APC, and CD69-PE 104511). The cells were then washed and resuspended in staining buffer for flow cytometry. For cytokine detection, tumor single-cell suspensions and spleen lymphocytes were incubated in RPMI-1640 with 10% FBS and 0.2% Cell Stimulation Cocktail (plus protein transport inhibitors) (eBioscience 00-4975-93) at 37 °C for 12 h. […] Flow cytometry was performed on ACEA NovoCyte, and the data were analyzed using NovoExpress. […]
# Total RNA was isolated using TRIzol reagent (Invitrogen, 15596026) according to the manufacturer’s protocol. […] Quantitative real-time PCR analysis was performed by mixing 10 μl SYBR, 0.4 μM forward primer, 0.4 μM reverse primer, 1 μl cDNA, and 8.2 μl distilled water per sample with Top Green qPCR SuperMix (Transgene, AQ601-04) by the manufacturer’s protocols. […]
# [16] = system: NAD+ content of A2780 cells; assay: NAD+ assay in A2780 cells; type: cell-based, human
# Method: as §2
structure (smiles),measurement,setting,value
COc1nc(OCc2cccc(-c3ccccc3)c2C)ccc1CNCCNC(C)=O [BMS202],IFN-γ (ELISA),[1]; listed as B202,155.867 and 141.57 and 156.336
same,TNF-α (ELISA),[1]; listed as B202,199.656 and 157.29 and 212.022
same,Eno1 mRNA level,"[2]; +T Cells, listed as B202",3.494 and 3.959 and 2.858
same,HK2 mRNA level,"[2]; +T Cells, listed as B202",2.644 and 2.833 and 1.744
same,Pfk1 mRNA level,"[2]; +T Cells, listed as B202",5.686 and 6.904
same,Aldoa mRNA level,"[2]; -T Cells, listed as B202",0.06048 and 0.109 and 0.06804
same,Eno1 mRNA level,"[2]; -T Cells, listed as B202",0.7778 and 1.3449 and 0.7359
same,Glut1 mRNA level,"[2]; -T Cells, listed as B202",0.3392 and 0.2003 and 0.2483
same,HK2 mRNA level,"[2]; -T Cells, listed as B202",1.261 and 1.177 and 0.9693
same,content of pyruvate (PA),"[3]; +T Cells, listed as B202",0.5383 and 0.5346 and 0.5309
same,content of pyruvate (PA),"[3]; -T Cells, listed as B202",0.3322 and 0.3345 and 0.3513
same,content of NAD+,"[4]; taken as +T cells by analogy with Fig 2G, listed as BM202",6.047 and 6.219 and 6.464
same,content of NAD+,"[4]; taken as -T cells by analogy with Fig 2G, listed as BM202",11.761 and 12.9475 and 11.7876
same,Aldoa mRNA level,[5]; listed as B202,1.286 and 1.53 and 1.628
same,Eno1 mRNA level,[5]; listed as B202,1.184 and 1.457 and 1.192
same,Glut1 mRNA level,[5]; listed as B202,1.195 and 1.4406 and 1.289
same,HK2 mRNA level,[5]; listed as B202,4.691 and 5.816 and 5.352
same,Pfk1 mRNA level,[5]; listed as B202,1.211 and 0.6057
same,Aldoa mRNA level,[6]; listed as B202,0.4841 and 0.4127 and 0.7087
same,Eno1 mRNA level,[6]; listed as B202,0.9159 and 1.082 and 0.8085
same,HK2 mRNA level,[6]; listed as B202,0.02498 and 0.01465 and 0.021
same,Pfk1 mRNA level,[6]; listed as B202,0.7631 and 0.9395 and 1
same,content of NAD+,"[7]; +PBMC, listed as BM202",8.982 and 8.901 and 8.955
same,content of NAD+,"[7]; -PBMC, listed as BM202",11.875 and 11.7227 and 11.9827
same,content of NAD+,"[8]; +PBMC, listed as BM202",10.2853 and 11.0822 and 11.211
same,content of NAD+,"[8]; -PBMC, listed as BM202",12.9598 and 12.8438 and 11.842
same,content of pyruvate (PA),"[9]; +PBMC, listed as BM202",0.2451 and 0.2361 and 0.2328
same,content of pyruvate (PA),"[9]; -PBMC, listed as BM202",0.1485 and 0.1357 and 0.1294
same,content of pyruvate (PA),"[10]; +PBMC, listed as BM202",0.1117 and 0.1102 and 0.1239
same,content of pyruvate (PA),"[10]; -PBMC, listed as BM202",0.09589 and 0.0979 and 0.1044
O=C(c1ncc(CNC2CCOCC2)s1)N1CCc2c(-c3ccc4c(c3)OCCO4)cccc21 [CQ-85],TIR / tumor growth inhibition (TGI) rate at endpoint,[11],45.36%
same,IFN-γ (ELISA),[1],156.023 and 118.367 and 126.961
same,TNF-α (ELISA),[1],198.796 and 198.903 and 183.742
same,IFN-γ (ELISA),[12],32.0391 and 39.4609 and 37.7422 and 48.3828
same,TNF-α (ELISA),[12],49.9785 and 53.7419 and 61.1613 and 63.957
same,Aldoa mRNA level,[2]; +T Cells,3.122 and 3.144 and 2.933
same,Eno1 mRNA level,[2]; +T Cells,1.63 and 2.181 and 1.51
same,HK2 mRNA level,[2]; +T Cells,1.976 and 1.225 and 1.397
same,Pfk1 mRNA level,[2]; +T Cells,4.524 and 5.686 and 6.18
same,Aldoa mRNA level,[2]; -T Cells,0.1409 and 0.1113 and 0.07549
same,Eno1 mRNA level,[2]; -T Cells,1.412 and 1.0924 and 0.8165
same,Glut1 mRNA level,[2]; -T Cells,0.4601 and 0.3164 and 0.3635
same,HK2 mRNA level,[2]; -T Cells,1.925 and 1.641 and 1.032
same,content of pyruvate (PA),[3]; +T Cells,0.4897 and 0.4757 and 0.4584
same,content of pyruvate (PA),[3]; -T Cells,0.334 and 0.378 and 0.3588
same,content of NAD+,[4]; taken as +T cells by analogy with Fig 2G,6.631 and 6.489 and 6.614
same,content of NAD+,[4]; taken as -T cells by analogy with Fig 2G,10.4157 and 11.1416 and 12.0617
same,Aldoa mRNA level,[5],0.8847 and 0.8971 and 0.9885
same,Eno1 mRNA level,[5],1.112 and 1.398 and 1.35
same,Glut1 mRNA level,[5],2.253 and 2.993 and 2.146
same,HK2 mRNA level,[5],5.011 and 5.445 and 5.877
same,Pfk1 mRNA level,[5],1.666 and 1.544 and 1.005
same,Aldoa mRNA level,[6],0.8971 and 0.8909 and 1.1434
same,Eno1 mRNA level,[6],0.7363 and 0.9515 and 0.8284
same,Pfk1 mRNA level,[6],0.9428 and 1.091 and 0.7397
same,content of NAD+,[7]; +PBMC,9.197 and 8.685 and 8.9355
same,content of NAD+,[7]; -PBMC,11.8739 and 12.9843 and 12.9544
same,content of NAD+,[8]; +PBMC,10.9402 and 9.994 and 10.0633
same,content of NAD+,[8]; -PBMC,11.853 and 11.7415 and 11.8655
same,content of pyruvate (PA),[9]; +PBMC,0.2271 and 0.2241 and 0.2316
same,content of pyruvate (PA),[9]; -PBMC,0.1159 and 0.1109 and 0.1297
same,content of pyruvate (PA),[10]; +PBMC,0.1029 and 0.09765 and 0.1064
same,content of pyruvate (PA),[10]; -PBMC,0.08688 and 0.08738 and 0.09664
same,effect on NAMPT protein expression,[13],upregulate the protein expression of NAMPT
"O=C(/C=C/c1cccnc1)NCCCCC1CCN(C(=O)c2ccccc2)CC1 [FK866, reference compound]",NAD+ in 20 mg tissue,[14],98.7342 and 119.831 and 110.802
same,effect on mouse organ or body weight,A20 tumors,caused a reduction in the body weight of the mice
same,TIR / tumor growth inhibition (TGI) rate at endpoint,[11],43.62%
same,effect on PD-L1 expression,[15],upregulated global and membrane PD-L1 expression
"NC(=O)c1ccc[n+]([C@@H]2O[C@H](COP(=O)([O-])O)[C@@H](O)[C@H]2O)c1 [NMN, nicotinamide mononucleotide]",Relative NAD+,[16]; NMN 1 μM added to LZFPN-90 (NMN 0 μM values equal those of 5 nM LZFPN-90),79.1005 and 77.5282
same,Relative NAD+,[16]; NMN 5 μM added to LZFPN-90,81.63 and 81.9669
same,Relative NAD+,[16]; NMN 10 μM added to LZFPN-90,85.5982 and 82.7424
same,Relative NAD+,[16]; NMN 20 μM added to LZFPN-90,92.0905 and 93.6414
same,Relative NAD+,[16]; NMN 40 μM added to LZFPN-90,91.3204 and 94.481
CC(NC(=O)c1ccccc1/N=C/c1c(O)ccc2ccccc12)c1ccccc1 (centres unmarked) [Sirtinol],effect on PD-L1 expression,[15],PD-L1 was upregulated at both the mRNA and protein levels
